Conditions: after SGF, 50 ml simulated intestinal fluid (SIF) added, pH settled at 6.0 with NaOH 2.5% w/v
Method: The solid composition (A) is maintained for 90 minutes (corresponding to the empty stomach emptying time) in a simulated gastric environment (SGF) pH 1.5 by adding HCl, thermostated at 37°C.
Subsequently, 50 ml of simulated intestinal fluid (SIF) are added to the system to simulate the transit in the first intestinal tract and the pH is settled at 6.0 with NaOH 2.5% w/v.

Q: Which “colour of the liquid (purple = iron in reduced form; amber = no more reducible ferric oxides)” value does the source give for NCC(=O)[O-].NCC(=O)[O-].[Fe+2] [bisglycinate iron, ferrous bisglycinate] here?
A: Its value is “amber-coloured liquid”.

From patent publication EP3609473B1, “ORAL COMPOSITIONS FOR THE TREATMENT OF IRON […]” (Labomar S.p.A., priority 2017, dated 2018)
